From paper PMC5078989, “Targeted inhibition of the COP9 signalosome for treatment of cancer” (Nature Communications, 2016)

Tested on: panel of cancer cell lines
Test: Cell viability (CellTiter-Glo) dose-response across cancer cell line panel;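 on EC50: after 72 h compound incubation with CellTiter-Glo ATP readout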
Type: cell-based, human
Conditions: for EC50: Homo sapiens
Excerpt: Next, we explored the effect of CSN5 inhibition on the viability of cancer cells. To obtain a comprehensive picture, we generated dose–response curves with a CSN5 inhibitor across more than 500 cancer cell lines in a previously described standardized setting[47] (Supplementary Data 1).
A standardized CellTiter-Glo Assay (Promega #G7570) based on the quantification of ATP was applied according to the manufacturer's protocol to measure the amount of viable cells in culture. In brief, cells were seeded into 384-well plates at optimal density for each cell line. After 4 h, compounds were added at different concentrations in growth medium and incubated for another 72 h in a humidifying chamber at 37 °C and 5% CO2. […] EC50 values were calculated from the plot of percentage of inhibition versus inhibitor concentration using the nonlinear regression analysis software Origin 7.5SR6 (OriginLab Corp.).

EC50 (SR-786, SR-786): 2.21 nM
EC50 (ST486, ST486): 6.31 nM
EC50 (SU-DHL10, SU-DHL-10): 14.5 nM
EC50 (SU-DHL-4, SU-DHL-4): 3.28 nM
EC50 (SU-DHL-8, SU-DHL-8): 3.8 nM
EC50 (SUM52, cell line SUM-52): 5.48 nM
EC50 (SUM52PE): 6.21 nM
EC50 (SUP-M2, SUP-M2): 3.28 nM
EC50 (SW480, SW480): 7.08 nM
EC50 (SW837, SW837): 5.87 nM
EC50 (SW948, SW948): 7.28 nM
EC50 (SW1088, SW 1088): 5.94 nM
EC50 (SW1271, cell line SW 1271): 21.5 nM
EC50 (SW1353, SW 1353): 39.3 nM
EC50 (SW1417, SW1417): 6.52 nM
EC50 (SW1573, SW 1573): 20.5 nM
EC50 (SW1783, SW 1783): 16.4 nM
EC50 (SW1990, SW 1990): 8.71 nM
EC50 (SW-620, SW620): 7.95 nM
EC50 (T47D, T-47D): 10.4 nM
EC50 (T84, T84): 12.1 nM
EC50 (T98G): 9.62 nM
EC50 (T-24, T24): 9.77 nM
EC50 (TC-71, TC-71): 11.4 nM
EC50 (TE-4): 5.89 nM
EC50 (TE-6, TE-6): 43.9 nM
EC50 (TE-10, TE-10): 11.2 nM
EC50 (TE-11, cell line TE-11): 28.9 nM
EC50 (TE-15, cell line TE-15): 16.7 nM
EC50 (TEN): 9.94 nM
EC50 (TF-1, TF-1): 1.67 nM
EC50 (THP-1, THP-1): 6.6 nM
EC50 (TOV21G, cell line TOV-21G): 4.25 nM
EC50 (TOV112D, TOV-112D): 28.7 nM
EC50 (TT2609-C02): 19.3 nM
EC50 (U266B1): 3.37 nM
EC50 (U-118-MG, U-118 MG): 7.81 nM
EC50 (U-251, U-251 MG): 6.91 nM
EC50 (U-937, U-937): 5.81 nM
EC50 (UACC-62, UACC-62): 19.5 nM
EC50 (UACC-257, UACC-257): 10.9 nM
EC50 (UMUC3, UM-UC-3): 15.1 nM
EC50 (VM-CUB-1, VM-CUB1): 10.1 nM
EC50 (VMRC-RCW): 5.3 nM
EC50 (WM 266-4, WM-266-4): 24.4 nM
EC50 (WM793, WM-793): 15.5 nM
EC50 (WM983B, WM-983B): 8.77 nM
EC50 (WM-88): 7.78 nM
EC50 (WM-115, WM-115): 6.28 nM
EC50 (WM-1799, WM1799): 7.42 nM
EC50 (WSUDLCL2, WSU-DLCL2): 4.13 nM
EC50 (YAPC): 22.7 nM
EC50 (YKG-1, YKG1): 7.27 nM
EC50 (YMB-1): 16.2 nM
EC50 (Z-138, cell line Z-138): 5.73 nM
EC50 (ZR-75-1, ZR-75-1): 21.1 nM
EC50 (ZR-75-30, ZR-75-30): 10.2 nM
EC50 (cell line AGS): 9.36 nM
EC50 (cell line BDCM): 7.98 nM
EC50 (cell line EB1): 6.47 nM
EC50 (cell line EB2): 6.46 nM
EC50 (cell line GCT): 19 nM
EC50 (cell line GI-1): 8.94 nM
EC50 (cell line H4): 11.5 nM
EC50 (cell line HH): 3.05 nM
EC50 (cell line HuG1-N): 1.83 nM
EC50 (cell line JHH-5): 17 nM
EC50 (cell line KS-1): 10.1 nM
EC50 (cell line KURAMOCHI): 30.9 nM
EC50 (cell line LC-1/sq-SF): 18.8 nM
EC50 (cell line LP-6): 10.3 nM
EC50 (cell line MEL-HO): 5.3 nM
EC50 (cell line MJ): 2.8 nM
EC50 (cell line MOG-G-UVW): 19.9 nM
EC50 (cell line Mel285): 8.2 nM
EC50 (cell line NCI-H2330): 32.2 nM
EC50 (cell line OMM2.3): 12.1 nM
EC50 (cell line OMM2.5): 21.7 nM
EC50 (cell line PC-3): 14.3 nM
EC50 (cell line RERF-LC-MS): 41.7 nM
EC50 (cell line RKO): 8.53 nM
EC50 (cell line RL): 3.25 nM
EC50 (cell line T778): 18.6 nM
EC50 (cell line TE 617.T): 6.87 nM
EC50 (cell line TE-1): 15.6 nM
EC50 (cell line TE-5): 7.97 nM
EC50 (cell line VMRC-RCZ): 8.46 nM
EC50 (cell line WS1): 17.6 nM
SMILES: CC(C)C[C@H](NC(=O)[C@H](Cc1ccccc1)NC(=O)c1cnccn1)B(O)O [Bortezomib]
AMAX (Hs 611.T): -95.5359
AMAX (Hs 729): -96.5684
AMAX (Hs 936.T): -95.7878
AMAX (Hs 940.T): -97.1382
AMAX (IGR-1): -97.3166
AMAX (JHOM-1): -95.2005
AMAX (JVM-3): -96.4391
AMAX (KARPAS-620): -98.4285
AMAX (KCL-22): -97.2427
AMAX (KHM-1B): -96.7668
AMAX (KLE): -91.799
AMAX (KMS-28BM): -96.7467
AMAX (KO52): -96.777
AMAX (KU812): -97.0553
AMAX (KYM-1): -96.8984
AMAX (KYO-1): -96.2465
AMAX (Ki-JK): -96.7338
AMAX (L-363): -96.7867
AMAX (LAMA-84): -97.7452
AMAX (LCLC-97TM1): -96.2648
AMAX (LCLC-103H): -95.0382
AMAX (LMSU): -95.8427
AMAX (LU99): -96.2849
AMAX (LXF-289): -97.2241
AMAX (Li-7): -96.9283
AMAX (MB 157): -95.9545
AMAX (MHH-NB-11): -96.8993
AMAX (MOLM-16): -96.6028
AMAX (MOLP-8): -96.4824
AMAX (MONO-MAC-1): -98.0152
AMAX (MONO-MAC-6): -96.8971
AMAX (NCI-H28): -96.1421
AMAX (NCI-H841): -95.8407
AMAX (NCI-H1184): -95.7721
AMAX (NCI-H1341): -97.2357
AMAX (NCI-H1869): -96.9482
AMAX (NCI-H2073): -96.9774
AMAX (NOMO-1): -95.3675
AMAX (OC 316): -96.5256
AMAX (OCI-AML2): -96.7921
AMAX (OCI-AML3): -95.7952
AMAX (OCI-AML5): -97.923
AMAX (OCI-M1): -95.2925
AMAX (ONCO-DG-1): -96.4992
AMAX (OS-RC-2): -96.3701
AMAX (OUMS-23): -95.8674
AMAX (OV7): -92.7444
AMAX (P31/FUJ): -96.7178
AMAX (PA-TU-8988S): -97.262
AMAX (PE/CA-PJ41 (clone D2)): -95.4895
AMAX (RI-1): -96.2187
AMAX (RMUG-S): -96.7615
AMAX (RVH-421): -95.9743
AMAX (SF126): -95.9565
AMAX (SK-N-SH): -96.5195
AMAX (SNU-216): -96.337
AMAX (SW620): -96.6127
AMAX (SW837): -95.7546
AMAX (SW948): -95.7047
AMAX (SW 1783): -94.9618
AMAX (T84): -98.3103
AMAX (T98G): -96.5841
AMAX (T-47D): -97.6577
AMAX (THP-1): -96.3023
AMAX (U-118 MG): -95.817
AMAX (UACC-257): -95.0265
AMAX (VMRC-RCW): -96.9199
AMAX (YMB-1): -91.0668
Amax (high-concentration effect level) (across all cell lines of the panel, 72 h): −95% to −100
AMAX (all cell lines of a selection from the panel (Fig. 3b)): ≤ −95%
